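Compound exposure: 48 hours, 5 concentrations, 96-well plates. Definition used: TGI = concentration required for complete inhibition of growth.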
How the values were obtained:
Experiment in all cases: DTP human tumour cell line panel, 48 h
HT29 colon = tested on: HT29 colon
MOLT-4 leukemia = tested on: MOLT-4 leukemia
HCC-2998 colon = tested on: HCC-2998 colon
SR leukemia = tested on: SR leukemia
NCI/ADR-RES ovarian = tested on: NCI/ADR-RES ovarian
EKVX NSCLC = tested on: EKVX NSCLC
HCT-15 colon = tested on: HCT-15 colon
CCRF-CEM leukemia = tested on: CCRF-CEM leukemia
ACHN renal = tested on: ACHN renal
SF-295 CNS = tested on: SF-295 CNS
MALME-3M melanoma = tested on: MALME-3M melanoma
NCI-H23 lung = tested on: NCI-H23 lung
KM12 colon = tested on: KM12 colon
OVCAR-4 ovarian = tested on: OVCAR-4 ovarian
OVCAR-8 ovarian = tested on: OVCAR-8 ovarian
HCT-116 colon = tested on: HCT-116 colon
MDA-MB-435 = tested on: MDA-MB-435
SNB-75 CNS = tested on: SNB-75 CNS
SK-MEL-2 melanoma = tested on: SK-MEL-2 melanoma
IGROV1 ovarian = tested on: IGROV1 ovarian
SK-OV-3 ovarian = tested on: SK-OV-3 ovarian
SN12C renal = tested on: SN12C renal
SK-MEL-28 melanoma = tested on: SK-MEL-28 melanoma
SF-539 CNS = tested on: SF-539 CNS
DU-145 prostate = tested on: DU-145 prostate
HOP-62 NSCLC = tested on: HOP-62 NSCLC
BT-549 breast = tested on: BT-549 breast
T-47D breast = tested on: T-47D breast
HS 578T breast = tested on: HS 578T breast
TK-10 renal = tested on: TK-10 renal
NCI-H460 lung = tested on: NCI-H460 lung
LOX IMVI melanoma = tested on: LOX IMVI melanoma
MDA-MB-231 breast = tested on: MDA-MB-231 breast
OVCAR-5 ovarian = tested on: OVCAR-5 ovarian
COLO 205 colon = tested on: COLO 205 colon
A498 renal = tested on: A498 renal
A549 NSCLC = tested on: A549 NSCLC
NCI-H522 lung = tested on: NCI-H522 lung
SNB-19 CNS = tested on: SNB-19 CNS
MCF7 breast = tested on: MCF7 breast
RPMI-8226 leukemia = tested on: RPMI-8226 leukemia
HL-60(TB) leukemia = tested on: HL-60(TB) leukemia
U251 CNS = tested on: U251 CNS
NCI-H226 lung = tested on: NCI-H226 lung
UACC-62 melanoma = tested on: UACC-62 melanoma
M14 melanoma = tested on: M14 melanoma
RXF 393 renal = tested on: RXF 393 renal
OVCAR-3 ovarian = tested on: OVCAR-3 ovarian
UO-31 renal = tested on: UO-31 renal
SF-268 CNS = tested on: SF-268 CNS
MDA-N = tested on: MDA-N
SK-MEL-5 melanoma = tested on: SK-MEL-5 melanoma
786-0 renal = tested on: 786-0 renal
UACC-257 melanoma = tested on: UACC-257 melanoma
K-562 leukemia = tested on: K-562 leukemia
HOP-92 NSCLC = tested on: HOP-92 NSCLC
PC-3 prostate = tested on: PC-3 prostate
CAKI-1 renal = tested on: CAKI-1 renal
SW-620 colon = tested on: SW-620 colon

`Brc1ccccc1/C=C\C1(c2ccccc2)OCCO1` was tested. Which TGI (HT29 colon) did it give?
The TGI was 19 µM.

And the TGI (MOLT-4 leukemia)?
The TGI was 9.23 µM.

And the TGI (HCC-2998 colon)?
The TGI was 32.2 µM.

What about the TGI (SR leukemia) of the same compound?
The TGI was 8.33 µM.

What about the TGI (NCI/ADR-RES ovarian) of the same compound?
The TGI was 32.7 µM.

What about the TGI (EKVX NSCLC) of the same compound?
The TGI was 30.6 µM.

And the TGI (HCT-15 colon)?
Its TGI is 19.5 µM.

What about the TGI (CCRF-CEM leukemia) of the same compound?
The TGI was > 33.2 µM.

And the TGI (ACHN renal)?
The TGI was 21.3 µM.

And the TGI (SF-295 CNS)?
Its TGI is 26.4 µM.

And the TGI (MALME-3M melanoma)?
Its TGI is 29.9 µM.

And the TGI (NCI-H23 lung)?
Its TGI is 20.5 µM.

What about the TGI (KM12 colon) of the same compound?
The TGI was 7.17 µM.

And the TGI (OVCAR-4 ovarian)?
The TGI was 14.8 µM.

What about the TGI (OVCAR-8 ovarian) of the same compound?
The TGI was 24.5 µM.

What about the TGI (HCT-116 colon) of the same compound?
The TGI was 11.9 µM.

What about the TGI (MDA-MB-435) of the same compound?
The TGI was 24.6 µM.

And the TGI (SNB-75 CNS)?
The TGI was 28.6 µM.

And the TGI (SK-MEL-2 melanoma)?
The TGI was 44.7 µM.

And the TGI (IGROV1 ovarian)?
The TGI was 29.3 µM.

And the TGI (SK-OV-3 ovarian)?
The TGI was 26.5 µM.

What about the TGI (SN12C renal) of the same compound?
The TGI was 27.4 µM.

And the TGI (SK-MEL-28 melanoma)?
Its TGI is 46.9 µM.

What about the TGI (SF-539 CNS) of the same compound?
The TGI was 25.7 µM.

And the TGI (DU-145 prostate)?
Its TGI is 26.7 µM.

And the TGI (HOP-62 NSCLC)?
The TGI was 27.7 µM.

And the TGI (BT-549 breast)?
The TGI was 39 µM.

What about the TGI (T-47D breast) of the same compound?
Its TGI is 31.4 µM.

And the TGI (HS 578T breast)?
The TGI was 17.3 µM.

What about the TGI (TK-10 renal) of the same compound?
The TGI was 31.7 µM.

And the TGI (NCI-H460 lung)?
Its TGI is 34.2 µM.

What about the TGI (LOX IMVI melanoma) of the same compound?
The TGI was 11.6 µM.

And the TGI (MDA-MB-231 breast)?
Its TGI is 25.4 µM.

What about the TGI (OVCAR-5 ovarian) of the same compound?
The TGI was 29.5 µM.

What about the TGI (COLO 205 colon) of the same compound?
Its TGI is 37.7 µM.

And the TGI (A498 renal)?
The TGI was 25.9 µM.

What about the TGI (A549 NSCLC) of the same compound?
Its TGI is 32.8 µM.

What about the TGI (NCI-H522 lung) of the same compound?
The TGI was 22.6 µM.

What about the TGI (SNB-19 CNS) of the same compound?
The TGI was 28.9 µM.

What about the TGI (MCF7 breast) of the same compound?
Its TGI is 18.1 µM.

What about the TGI (RPMI-8226 leukemia) of the same compound?
Its TGI is 6.78 µM.

What about the TGI (HL-60(TB) leukemia) of the same compound?
The TGI was > 52.3 µM.

And the TGI (U251 CNS)?
The TGI was 18.4 µM.

What about the TGI (NCI-H226 lung) of the same compound?
Its TGI is 38.2 µM.

What about the TGI (UACC-62 melanoma) of the same compound?
Its TGI is 28 µM.

What about the TGI (M14 melanoma) of the same compound?
Its TGI is 25.6 µM.

What about the TGI (RXF 393 renal) of the same compound?
The TGI was 27.7 µM.

And the TGI (OVCAR-3 ovarian)?
Its TGI is 25.5 µM.

What about the TGI (UO-31 renal) of the same compound?
Its TGI is 20 µM.

And the TGI (SF-268 CNS)?
Its TGI is 16 µM.

And the TGI (MDA-N)?
Its TGI is 25.3 µM.

And the TGI (SK-MEL-5 melanoma)?
Its TGI is 29.1 µM.

What about the TGI (786-0 renal) of the same compound?
Its TGI is 24.3 µM.

What about the TGI (UACC-257 melanoma) of the same compound?
The TGI was 34.5 µM.

And the TGI (K-562 leukemia)?
Its TGI is > 100 µM.

And the TGI (HOP-92 NSCLC)?
The TGI was 46.9 µM.

And the TGI (PC-3 prostate)?
Its TGI is 34.1 µM.

What about the TGI (CAKI-1 renal) of the same compound?
The TGI was 16.3 µM.

With `CCOC(=O)C1(Cc2ccccc2)Cc2cc3c(cc2C1=O)CCC3` (stereo not given) as the compound, how does the TGI (HT29 colon) read?
Its TGI is > 100 µM.

And the TGI (MOLT-4 leukemia)?
Its TGI is > 100 µM.

And the TGI (HCC-2998 colon)?
The TGI was > 100 µM.

What about the TGI (SR leukemia) of the same compound?
The TGI was > 100 µM.

And the TGI (NCI/ADR-RES ovarian)?
Its TGI is > 100 µM.

What about the TGI (EKVX NSCLC) of the same compound?
Its TGI is > 100 µM.

What about the TGI (HCT-15 colon) of the same compound?
Its TGI is > 100 µM.

What about the TGI (CCRF-CEM leukemia) of the same compound?
Its TGI is > 100 µM.

What about the TGI (ACHN renal) of the same compound?
The TGI was > 100 µM.

What about the TGI (SF-295 CNS) of the same compound?
Its TGI is > 100 µM.

What about the TGI (MALME-3M melanoma) of the same compound?
The TGI was > 100 µM.

And the TGI (NCI-H23 lung)?
The TGI was > 100 µM.

What about the TGI (KM12 colon) of the same compound?
Its TGI is > 100 µM.

And the TGI (OVCAR-4 ovarian)?
The TGI was > 100 µM.

What about the TGI (OVCAR-8 ovarian) of the same compound?
The TGI was > 100 µM.

And the TGI (HCT-116 colon)?
Its TGI is > 100 µM.

What about the TGI (MDA-MB-435) of the same compound?
The TGI was > 100 µM.

And the TGI (SNB-75 CNS)?
The TGI was > 100 µM.

And the TGI (SK-MEL-2 melanoma)?
The TGI was > 100 µM.

And the TGI (IGROV1 ovarian)?
The TGI was > 100 µM.

And the TGI (SK-OV-3 ovarian)?
Its TGI is > 100 µM.

What about the TGI (SN12C renal) of the same compound?
Its TGI is > 100 µM.

And the TGI (SK-MEL-28 melanoma)?
Its TGI is > 100 µM.

What about the TGI (SF-539 CNS) of the same compound?
The TGI was > 100 µM.

And the TGI (DU-145 prostate)?
The TGI was > 100 µM.

And the TGI (HOP-62 NSCLC)?
The TGI was > 100 µM.

And the TGI (BT-549 breast)?
The TGI was > 100 µM.

And the TGI (T-47D breast)?
The TGI was > 100 µM.

What about the TGI (HS 578T breast) of the same compound?
The TGI was > 100 µM.

And the TGI (TK-10 renal)?
The TGI was > 100 µM.

What about the TGI (NCI-H460 lung) of the same compound?
Its TGI is > 100 µM.

And the TGI (LOX IMVI melanoma)?
The TGI was > 100 µM.

What about the TGI (MDA-MB-231 breast) of the same compound?
The TGI was > 100 µM.

What about the TGI (OVCAR-5 ovarian) of the same compound?
The TGI was > 100 µM.

What about the TGI (COLO 205 colon) of the same compound?
The TGI was > 100 µM.

And the TGI (A498 renal)?
Its TGI is > 100 µM.

What about the TGI (A549 NSCLC) of the same compound?
The TGI was > 100 µM.

And the TGI (SW-620 colon)?
Its TGI is > 100 µM.

And the TGI (SNB-19 CNS)?
Its TGI is > 100 µM.

And the TGI (MCF7 breast)?
Its TGI is > 100 µM.

And the TGI (RPMI-8226 leukemia)?
The TGI was > 100 µM.

What about the TGI (HL-60(TB) leukemia) of the same compound?
The TGI was > 100 µM.

And the TGI (U251 CNS)?
The TGI was > 100 µM.

What about the TGI (NCI-H226 lung) of the same compound?
The TGI was > 100 µM.

And the TGI (UACC-62 melanoma)?
Its TGI is > 100 µM.

And the TGI (M14 melanoma)?
The TGI was > 100 µM.

And the TGI (RXF 393 renal)?
Its TGI is > 100 µM.

What about the TGI (OVCAR-3 ovarian) of the same compound?
Its TGI is > 100 µM.

What about the TGI (UO-31 renal) of the same compound?
The TGI was > 100 µM.

And the TGI (SF-268 CNS)?
The TGI was > 100 µM.

What about the TGI (MDA-N) of the same compound?
Its TGI is > 100 µM.

What about the TGI (SK-MEL-5 melanoma) of the same compound?
The TGI was > 100 µM.

And the TGI (786-0 renal)?
Its TGI is > 100 µM.

What about the TGI (UACC-257 melanoma) of the same compound?
The TGI was > 100 µM.

And the TGI (K-562 leukemia)?
The TGI was > 100 µM.

And the TGI (HOP-92 NSCLC)?
The TGI was > 100 µM.

And the TGI (PC-3 prostate)?
The TGI was > 100 µM.
